Measured values from ChEMBL document CHEMBL4385608, “5-Aryl-1,3,4-oxadiazol-2-ylthioalkanoic Acids: A Highly Potent New Class of Inhibitors of Rho/Myocardin-Related Transcription Factor (MRTF)/Serum Response Factor (SRF)-Mediated Gene Transcription as Potential Antifibrotic Agents for Scleroderma” (J Med Chem, 2019).
Converted amounts (≈) assume the structure as drawn. Each block holds one compound with its values, some of them ahead of it. The source made the active and inactive calls. The calls are words filed in the database; no cut-off is given here.

How the values were obtained:
[1] = Inhibition of Rho/MRTF/SRF pathway (unknown origin) expressed in HEK293T cells assessed as reduction in Galpha12-stimulated MRTF-selective SRE.L promoter-driven luciferase activity after overnight incubation by luminescence assay; format: cell-based, Homo sapiens
[2] = Inhibition of Rho/MRTF/SRF pathway (unknown origin) expressed in human PC3 cells assessed as reduction in Galpha12 Q231L-stimulated MRTF-selective SRE.L promoter-driven luciferase activity after overnight incubation by luminescence assay; format: cell-based
[3] = test system: PC-3; experiment: Cytotoxicity against human PC3 cells assessed as reduction in cell viability up to 100 uM by WST-1 assay relative to control; format: cell-based
[4] = test system: PC-3; experiment: Cytotoxicity against human PC3 cells assessed as reduction in cell viability by CellTiter-Fluor assay; format: cell-based
[5] = species on record: Homo sapiens; experiment: Inhibition of Rho/MRTF/SRF pathway in human primary dermal fibroblasts assessed as reduction in LPA-stimulated CTGF mRNA expression by measuring CTGF mRNA level at 10^-6 M preincubated for 72 hrs followed by LPA stimulation and measured after 1 hr by qPCR analysis relative to control; parameters: scale not given: the % may be the effect or the level left
[6] = test system: HEK-293T; experiment: Cytotoxicity against HEK293T cells assessed as reduction in cell viability up to 100 uM by WST-1 assay relative to control; format: cell-based; conditions: human
[7] = test system: PC-3; experiment: Cytotoxicity against human PC3 cells assessed as reduction in cell viability up to 100 uM by CellTiter-Fluor assay; format: cell-based
[8] = species on record: Homo sapiens; experiment: Inhibition of Rho/MRTF/SRF pathway (unknown origin) expressed in human PC3 cells assessed as reduction in Galpha12 Q231L-stimulated MRTF-selective SRE.L promoter-driven luciferase activity up to 100 uM after overnight incubation by luminescence assay; format: cell-based
[9] = Equilibrium solubility of the compound in phosphate buffer saline; format: physicochemical
[10] = Half-life in CD-1 mouse at 3 mg/kg, iv by LC-MS/MS analysis; format: ADME, organism-based; conditions: in vivo
[11] = species on record: Homo sapiens; experiment: Inhibition of Rho/MRTF/SRF pathway in human primary dermal fibroblasts assessed as reduction in LPA-stimulated CTGF mRNA expression preincubated for 72 hrs followed by LPA stimulation and measured after 1 hr by qPCR analysis
[12] = species on record: Homo sapiens; experiment: Inhibition of Rho/MRTF/SRF pathway in human primary dermal fibroblasts assessed as reduction in LPA-stimulated CTGF mRNA expression preincubated for 48 hrs followed by LPA stimulation and measured after 1 hr by qPCR analysis
[13] = AUC in CD-1 mouse at 3 mg/kg, po by LC-MS/MS analysis; format: ADME, organism-based; conditions: in vivo
[14] = AUC in CD-1 mouse at 3 mg/kg, iv by LC-MS/MS analysis; format: ADME, organism-based; conditions: in vivo
[15] = Cmax in CD-1 mouse at 30 mg/kg, po by LC-MS/MS analysis; format: ADME, organism-based; parameters: dose 30 mg/kg, route oral; conditions: in vivo
[16] = Half-life in CD-1 mouse liver microsomes at 1 uM in presence of NADPH by LC-MS/MS analysis; format: ADME, Microsome
[17] = Clearance in CD-1 mouse at 3 mg/kg, iv by LC-MS/MS analysis; format: ADME, organism-based; conditions: in vivo
[18] = Oral bioavailability in CD-1 mouse at 30 mg/kg by LC-MS/MS analysis; format: ADME, organism-based; conditions: in vivo
[19] = Cmax in CD-1 mouse at 3 mg/kg, po by LC-MS/MS analysis; format: ADME, organism-based; parameters: dose 3 mg/kg, route oral; conditions: in vivo
[20] = test system: Mus musculus; experiment: Antifibrotic activity in bleomycin-induced C57BL/6 mouse model of dermal fibrosis assessed as decrease in dermal thickness at 3 to 10 mg/kg, po administered via gavage for 14 days measured post-last dose by Masson's trichrome-staining based microscopic method; format: functional, organism-based
[21] = Half-life in CD-1 mouse at 30 mg/kg, po by LC-MS/MS analysis; format: ADME, organism-based; conditions: in vivo
[22] = Oral bioavailability in CD-1 mouse at 10 mg/kg by LC-MS/MS analysis; format: ADME, organism-based; conditions: in vivo
[23] = Oral bioavailability in CD-1 mouse at 3 mg/kg by LC-MS/MS analysis; format: ADME, organism-based; conditions: in vivo
[24] = AUC in CD-1 mouse at 10 mg/kg, po by LC-MS/MS analysis; format: ADME, organism-based; conditions: in vivo
[25] = AUC in CD-1 mouse at 30 mg/kg, po by LC-MS/MS analysis; format: ADME, organism-based; conditions: in vivo
[26] = Cmax in CD-1 mouse at 3 mg/kg, iv by LC-MS/MS analysis; format: ADME, organism-based; parameters: dose 3 mg/kg, route intravenous; conditions: in vivo
[27] = test system: Mus musculus; experiment: Antifibrotic activity in bleomycin-induced C57BL/6 mouse model of dermal fibrosis assessed as decrease in hydroxyproline content at 3 to 10 mg/kg, po administered via gavage for 14 days measured post-last dose; format: functional, organism-based
[28] = Cmax in CD-1 mouse at 10 mg/kg, po by LC-MS/MS analysis; format: ADME, organism-based; parameters: dose 10 mg/kg, route oral; conditions: in vivo
[29] = Half-life in CD-1 mouse at 3 mg/kg, po by LC-MS/MS analysis; format: ADME, organism-based; conditions: in vivo
[30] = Half-life in CD-1 mouse at 10 mg/kg, po by LC-MS/MS analysis; format: ADME, organism-based; conditions: in vivo
[31] = AUC in CD-1 mouse at 15 mg/kg, iv by LC-MS/MS analysis; format: ADME, organism-based; conditions: in vivo
[32] = test system: Mus musculus; experiment: Antifibrotic activity in bleomycin-induced mouse model of dermal fibrosis assessed as decrease in hydroxyproline content administered daily via oral gavage for 14 days measured post-last dose; format: functional, organism-based
[33] = test system: Mus musculus; experiment: Antifibrotic activity in bleomycin-induced mouse model of dermal fibrosis assessed as decrease in dermal thickness administered daily via oral gavage for 14 days measured post-last dose by Masson's trichrome-staining based microscopic method; format: functional, organism-based
[34] = Thermodynamic solubility of the compound; format: physicochemical; conditions: read-out: Therm_solubility
[35] = Clearance in CD-1 mouse at 15 mg/kg, iv by LC-MS/MS analysis; format: ADME, organism-based; conditions: in vivo
[36] = Cmax in CD-1 mouse at 15 mg/kg, iv by LC-MS/MS analysis; format: ADME, organism-based; parameters: dose 15 mg/kg, route intravenous; conditions: in vivo
[37] = Half-life in CD-1 mouse at 15 mg/kg, iv by LC-MS/MS analysis; format: ADME, organism-based; conditions: in vivo
[38] = AUC in CD-1 mouse at 20 mg/kg, po by LC-MS/MS analysis; format: ADME, organism-based; conditions: in vivo
[39] = Cmax in CD-1 mouse at 20 mg/kg, po by LC-MS/MS analysis; format: ADME, organism-based; parameters: dose 20 mg/kg, route oral; conditions: in vivo
[40] = Half-life in CD-1 mouse at 10 mg/kg, iv by LC-MS/MS analysis; format: ADME, organism-based; conditions: in vivo
[41] = AUC in CD-1 mouse at 10 mg/kg, iv by LC-MS/MS analysis; format: ADME, organism-based; conditions: in vivo
[42] = Clearance in CD-1 mouse at 10 mg/kg, iv by LC-MS/MS analysis; format: ADME, organism-based; conditions: in vivo
[43] = Cmax in CD-1 mouse at 10 mg/kg, iv by LC-MS/MS analysis; format: ADME, organism-based; parameters: dose 10 mg/kg, route intravenous; conditions: in vivo
[44] = Oral bioavailability in CD-1 mouse at 20 mg/kg by LC-MS/MS analysis; format: ADME, organism-based; conditions: in vivo
[45] = Half-life in CD-1 mouse at 20 mg/kg, po by LC-MS/MS analysis; format: ADME, organism-based; conditions: in vivo

IC50 [1]: 11500 nM
Structure (SMILES): O=C(O)CSCc1nnc(-c2ccc(Cl)cc2Cl)o1

IC50 [2]: 3600 nM
Structure (SMILES): COc1cccc(-c2nnc(SCCC(=O)O)o2)c1
Activity [3]: < 5%

IC50 [2]: 1300 nM
Activity [5]: 45%
Structure (SMILES): COC(=O)c1ccc2c(c1)NC(=O)/C2=C(\Nc1ccc(N(C)C(=O)CN2CCN(C)CC2)cc1)c1ccccc1 [NINTEDANIB]
IC50 [4]: < 30000 nM

IC50 [2]: 34 nM
Structure (SMILES): Cc1ccc(-c2nnc(SCCC(=O)O)o2)cc1
Activity [3]: < 5%

IC50 [1]: < 0.0001 nM
Structure (SMILES): CCCc1ccc(-c2nnc(SCCCC(=O)O)o2)c(Cl)c1
Activity [6]: < 5%

IC50 [2]: 2.6 nM
Structure (SMILES): COc1ccc(-c2nnc(SCCC(=O)O)o2)c(Cl)c1
Activity [3]: < 5%

IC50 [2]: 2.6 nM
Structure (SMILES): CCOC(=O)CCSc1nnc(-c2ccc(Cl)cc2Cl)o1
Activity [3]: < 5%

Structure (SMILES): CNC(=O)CCSc1nnc(-c2ccc(Cl)cc2Cl)o1
Activity [3]: < 5%

IC50 [1]: > 100000 nM
Structure (SMILES): O=C(O)CCCS(=O)(=O)c1nnc(-c2ccc(Cl)cc2Cl)o1

Activity [5]: 91%
Structure (SMILES): Cc1ccc(=O)n(-c2ccccc2)c1 [PIRFENIDONE]
Activity [7]: Toxic
inhibition [8]: inactive

IC50 [2]: 1.5 nM
Structure (SMILES): Cc1ccc(-c2nnc(SCCC(=O)O)o2)c(Cl)c1
Activity [3]: < 5%

IC50 [2]: > 100000 nM
Structure (SMILES): O=C(O)CCSc1nnc(-c2ccncc2)o1

IC50 [1]: > 100000 nM
Structure (SMILES): O=C(O)CCCc1nnc(-c2ccc(Cl)cc2Cl)o1

IC50 [1]: 0.0007 nM
Structure (SMILES): CCc1ccc(-c2nnc(SCCCC(=O)O)o2)c(Cl)c1
Activity [6]: < 5%

IC50 [1]: 0.07 nM
Structure (SMILES): O=C(O)CCCSc1nnc(-c2ccc(Br)cc2Cl)o1
Activity [6]: < 5%

solubility thermodynamic [9]: > 1000 µM
half-life [10]: 1.7 h
inhibition [11]: Dose-dependent effect
inhibition [12]: inactive
AUC [13]: 361 ng·h/mL
AUC [14]: 3260 ng·h/mL
Cmax [15]: 10100 ng/mL
t1/2 [16]: 0.783 h
clearance [17]: 15.4 mL/min/kg
bioavailability [18]: 29%
Cmax [19]: 397 ng/mL
half-life [21]: 2.2 h
IC50 [1]: 0.001 nM
bioavailability [22]: 17%
bioavailability [23]: 11%
AUC [24]: 1830 ng·h/mL
IC50 [2]: 0.001 nM
AUC [25]: 9500 ng·h/mL
Cmax [26]: 8140 ng/mL
Cmax [28]: 1430 ng/mL
half-life [29]: 1.6 h
half-life [30]: 1.8 h
Structure (SMILES): O=C(O)CCCSc1nnc(-c2ccc(C3CC3)cc2Cl)o1
Activity [6]: < 5%
Activity [20]: Active
Activity [27]: Active
Activity [3]: < 5%

IC50 [2]: 3500 nM
Structure (SMILES): O=C(O)CCSc1nnc(-c2ccccc2)o1
Activity [3]: < 5%

Structure (SMILES): O=C(O)CSc1nnc(-c2ccc(Cl)cc2Cl)o1
Activity [3]: < 5%

AUC [31]: 47400 ng·h/mL
inhibition [11]: Dose-dependent effect
inhibition [12]: inactive
solubility thermodynamic [34]: 682 µM (≈ 218 µg/mL)
Cmax [15]: 34000 ng/mL
t1/2 [16]: > 1 h
bioavailability [18]: 67%
clearance [35]: 5.3 mL/min/kg
half-life [21]: 2 h
IC50 [1]: 2 nM
Cmax [36]: 88600 ng/mL
IC50 [2]: 4 nM
AUC [25]: 63200 ng·h/mL
t1/2 [37]: 2 h
Structure (SMILES): O=C(O)CCSc1nnc(-c2ccc(Cl)cc2Cl)o1
Activity [32]: Dose-dependent effect
Activity [33]: Dose-dependent effect
Activity [6]: < 5%
Activity [3]: < 5%

IC50 [1]: 10000 nM
Structure (SMILES): O=C(O)CCCSc1nnc(-c2ccccc2C(F)(F)F)o1
Activity [6]: < 5%

IC50 [2]: 87000 nM
Structure (SMILES): O=C(O)CCSc1nnc(-c2cccnc2)o1

IC50 [2]: 6300 nM
Structure (SMILES): Cc1ccccc1-c1nnc(SCCC(=O)O)o1
Activity [3]: < 5%

IC50 [1]: 25 nM
Structure (SMILES): O=C(O)CCCSc1nnc(-c2ccc(-c3ccccc3)cc2Cl)o1
Activity [6]: < 5%

AUC [38]: 11100 ng·h/mL
Cmax [39]: 23200 ng/mL
half-life [40]: 1.4 h
AUC [41]: 10700 ng·h/mL
solubility thermodynamic [34]: 841 µM (≈ 280 µg/mL)
clearance [42]: 15.5 mL/min/kg
t1/2 [16]: > 1 h
Cmax [43]: 35600 ng/mL
bioavailability [44]: 52%
IC50 [1]: 0.84 nM
half-life [45]: 1.2 h
IC50 [2]: 1.8 nM
Structure (SMILES): O=C(O)CCCSc1nnc(-c2ccc(Cl)cc2Cl)o1
Activity [6]: < 5%
Activity [3]: < 5%

t1/2 [16]: > 1 h
IC50 [1]: 0.06 nM
Structure (SMILES): O=C(O)CCCSc1nnc(-c2ccc(C(F)(F)F)cc2Cl)o1
Activity [6]: < 5%
